# Measured values reported in PMC7156458, “Synthetic biology based construction of biological activity-related library of fungal decalin-containing diterpenoid pyrones” (Nature Communications, 2020).
# Molecular target: Aβ42 (Homo sapiens, UniProt P05067)
# Assay: Th-T (thioflavin-T) assay of Aβ42 aggregation
# Type: biochemical
# Conditions: for Th-T assay plate reading, mean of three wells (Supplementary Fig. 47): source data, Ab alone and No Ab as controls
# Aβ42, sequence (P05067 672-713): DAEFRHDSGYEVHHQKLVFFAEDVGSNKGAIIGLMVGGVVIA
smiles,measurement,setting,value
C=C1CC[C@H]2[C@]3(C)C[C@@H](C=C(C)C)O[C@H]3CC[C@]2(C)[C@@H]1Cc1c(OC)oc(CO)c(C)c1=O [Compound 17],"Th-T fluorescence, mean of three wells","Aβ42 aggregation time course, reading M117",3.6742
same,"Th-T fluorescence, mean of three wells","Aβ42 aggregation time course, reading M118",3.663
same,"Th-T fluorescence, mean of three wells","Aβ42 aggregation time course, reading M119",3.652
same,"Th-T fluorescence, mean of three wells","Aβ42 aggregation time course, reading M120",3.6432
same,"Th-T fluorescence, mean of three wells","Aβ42 aggregation time course, reading M121",3.639
same,"Th-T fluorescence, mean of three wells","Aβ42 aggregation time course, reading M122",3.631
same,"Th-T fluorescence, mean of three wells","Aβ42 aggregation time course, reading M123",3.625
same,"Th-T fluorescence, mean of three wells","Aβ42 aggregation time course, reading M124",3.645
same,"Th-T fluorescence, mean of three wells","Aβ42 aggregation time course, reading M125",3.636
same,"Th-T fluorescence, mean of three wells","Aβ42 aggregation time course, reading M126",3.626
same,"Th-T fluorescence, mean of three wells","Aβ42 aggregation time course, reading M127",3.63
same,"Th-T fluorescence, mean of three wells","Aβ42 aggregation time course, reading M128",3.617
same,"Th-T fluorescence, mean of three wells","Aβ42 aggregation time course, reading M129",3.6361
same,"Th-T fluorescence, mean of three wells","Aβ42 aggregation time course, reading M130",3.633
same,"Th-T fluorescence, mean of three wells","Aβ42 aggregation time course, reading M131",3.621
same,"Th-T fluorescence, mean of three wells","Aβ42 aggregation time course, reading M132",3.621
same,"Th-T fluorescence, mean of three wells","Aβ42 aggregation time course, reading M133",3.612
same,"Th-T fluorescence, mean of three wells","Aβ42 aggregation time course, reading M134",3.622
same,"Th-T fluorescence, mean of three wells","Aβ42 aggregation time course, reading M135",3.594
same,"Th-T fluorescence, mean of three wells","Aβ42 aggregation time course, reading M136",3.604
same,"Th-T fluorescence, mean of three wells","Supplementary Fig. 47, reading M137",3.585
same,"Th-T fluorescence, mean of three wells","Supplementary Fig. 47, reading M138",3.583
same,"Th-T fluorescence, mean of three wells","Supplementary Fig. 47, reading M139",3.585
same,"Th-T fluorescence, mean of three wells","Supplementary Fig. 47, reading M140",3.575
same,"Th-T fluorescence, mean of three wells","Supplementary Fig. 47, reading M141",3.571
same,"Th-T fluorescence, mean of three wells","Supplementary Fig. 47, reading M142",3.57
same,"Th-T fluorescence, mean of three wells","Supplementary Fig. 47, reading M143",3.569
same,"Th-T fluorescence, mean of three wells","Supplementary Fig. 47, reading M144",3.562
same,"Th-T fluorescence, mean of three wells","Supplementary Fig. 47, reading M145",3.551
same,"Th-T fluorescence, mean of three wells","Supplementary Fig. 47 source data, measurement M37 of time course",3.249
same,"Th-T fluorescence, mean of three wells","Supplementary Fig. 47 source data, measurement M38 of time course",3.349
same,"Th-T fluorescence, mean of three wells","Supplementary Fig. 47 source data, measurement M39 of time course",3.376
same,"Th-T fluorescence, mean of three wells","Supplementary Fig. 47 source data, measurement M40 of time course",3.376
same,"Th-T fluorescence, mean of three wells","Supplementary Fig. 47 source data, measurement M41 of time course",3.367
same,"Th-T fluorescence, mean of three wells","Supplementary Fig. 47 source data, measurement M42 of time course",3.371
same,"Th-T fluorescence, mean of three wells","Supplementary Fig. 47 source data, measurement M43 of time course",3.406
same,"Th-T fluorescence, mean of three wells","Supplementary Fig. 47 source data, measurement M44 of time course",3.418
same,"Th-T fluorescence, mean of three wells","Supplementary Fig. 47 source data, measurement M45 of time course",3.459
same,"Th-T fluorescence, mean of three wells","Supplementary Fig. 47 source data, measurement M46 of time course",3.456
same,"Th-T fluorescence, mean of three wells","Supplementary Fig. 47 source data, measurement M47 of time course",3.465
same,"Th-T fluorescence, mean of three wells","Supplementary Fig. 47 source data, measurement M48 of time course",3.489
same,"Th-T fluorescence, mean of three wells","Supplementary Fig. 47 source data, measurement M49 of time course",3.497
same,"Th-T fluorescence, mean of three wells","Supplementary Fig. 47 source data, measurement M50 of time course",3.516
same,"Th-T fluorescence, mean of three wells","Supplementary Fig. 47 source data, measurement M51 of time course",3.557
same,"Th-T fluorescence, mean of three wells","Supplementary Fig. 47 source data, measurement M52 of time course",3.55
same,"Th-T fluorescence, mean of three wells","Supplementary Fig. 47 source data, measurement M53 of time course",3.554
same,"Th-T fluorescence, mean of three wells","Supplementary Fig. 47 source data, measurement M54 of time course",3.5687
same,"Th-T fluorescence, mean of three wells","Supplementary Fig. 47 source data, measurement M55 of time course",3.6
same,"Th-T fluorescence, mean of three wells","Supplementary Fig. 47 source data, measurement M56 of time course",3.63
same,"Th-T assay plate reading, mean of three wells (Supplementary Fig. 47)",measurement M1,0.2517
same,"Th-T assay plate reading, mean of three wells (Supplementary Fig. 47)",measurement M2,0.2528
same,"Th-T assay plate reading, mean of three wells (Supplementary Fig. 47)",measurement M3,0.2961
same,"Th-T assay plate reading, mean of three wells (Supplementary Fig. 47)",measurement M4,0.352
same,"Th-T assay plate reading, mean of three wells (Supplementary Fig. 47)",measurement M5,0.4245
same,"Th-T assay plate reading, mean of three wells (Supplementary Fig. 47)",measurement M6,0.4941
same,"Th-T assay plate reading, mean of three wells (Supplementary Fig. 47)",measurement M7,0.5517
same,"Th-T assay plate reading, mean of three wells (Supplementary Fig. 47)",measurement M8,0.6173
same,"Th-T assay plate reading, mean of three wells (Supplementary Fig. 47)",measurement M9,0.6978
same,"Th-T assay plate reading, mean of three wells (Supplementary Fig. 47)",measurement M10,0.9149
same,"Th-T assay plate reading, mean of three wells (Supplementary Fig. 47)",measurement M11,1.381
same,"Th-T assay plate reading, mean of three wells (Supplementary Fig. 47)",measurement M12,1.864
same,"Th-T assay plate reading, mean of three wells (Supplementary Fig. 47)",measurement M13,2.227
same,"Th-T assay plate reading, mean of three wells (Supplementary Fig. 47)",measurement M14,2.461
same,"Th-T assay plate reading, mean of three wells (Supplementary Fig. 47)",measurement M15,2.575
same,"Th-T assay plate reading, mean of three wells (Supplementary Fig. 47)",measurement M16,2.619
same,"Th-T fluorescence, mean of three wells","reading M17, Supplementary Fig. 47 source data",2.658
same,"Th-T fluorescence, mean of three wells","reading M18, Supplementary Fig. 47 source data",2.682
same,"Th-T fluorescence, mean of three wells","reading M19, Supplementary Fig. 47 source data",2.683
same,"Th-T fluorescence, mean of three wells","reading M20, Supplementary Fig. 47 source data",2.726
same,"Th-T fluorescence, mean of three wells","reading M21, Supplementary Fig. 47 source data",2.74
same,"Th-T fluorescence, mean of three wells","reading M22, Supplementary Fig. 47 source data",2.776
same,"Th-T fluorescence, mean of three wells","reading M23, Supplementary Fig. 47 source data",2.7833
same,"Th-T fluorescence, mean of three wells","reading M24, Supplementary Fig. 47 source data",2.808
same,"Th-T fluorescence, mean of three wells","reading M25, Supplementary Fig. 47 source data",2.851
same,"Th-T fluorescence, mean of three wells","reading M26, Supplementary Fig. 47 source data",2.893
same,"Th-T fluorescence, mean of three wells","reading M27, Supplementary Fig. 47 source data",2.879
same,"Th-T fluorescence, mean of three wells","reading M28, Supplementary Fig. 47 source data",2.908
same,"Th-T fluorescence, mean of three wells","reading M29, Supplementary Fig. 47 source data",2.914
same,"Th-T fluorescence, mean of three wells","reading M30, Supplementary Fig. 47 source data",2.944
same,"Th-T fluorescence, mean of three wells","reading M31, Supplementary Fig. 47 source data",2.96
same,"Th-T fluorescence, mean of three wells","reading M32, Supplementary Fig. 47 source data",3.025
same,"Th-T fluorescence, mean of three wells","reading M33, Supplementary Fig. 47 source data",3.031
same,"Th-T fluorescence, mean of three wells","reading M34, Supplementary Fig. 47 source data",3.078
same,"Th-T fluorescence, mean of three wells","reading M35, Supplementary Fig. 47 source data",3.103
same,"Th-T fluorescence, mean of three wells","reading M36, Supplementary Fig. 47 source data",3.12
same,"Th-T fluorescence, mean of three wells","time course, reading M57",3.617
same,"Th-T fluorescence, mean of three wells","time course, reading M58",3.628
same,"Th-T fluorescence, mean of three wells","time course, reading M59",3.637
same,"Th-T fluorescence, mean of three wells","time course, reading M60",3.637
same,"Th-T fluorescence, mean of three wells","time course, reading M61",3.653
same,"Th-T fluorescence, mean of three wells","time course, reading M62",3.653
same,"Th-T fluorescence, mean of three wells","time course, reading M63",3.655
same,"Th-T fluorescence, mean of three wells","time course, reading M64",3.667
same,"Th-T fluorescence, mean of three wells","time course, reading M65",3.662
same,"Th-T fluorescence, mean of three wells","time course, reading M66",3.684
same,"Th-T fluorescence, mean of three wells","time course, reading M67",3.7096
same,"Th-T fluorescence, mean of three wells","time-course reading M97, Supplementary Fig. 47 source data",3.715
same,"Th-T fluorescence, mean of three wells","time-course reading M98, Supplementary Fig. 47 source data",3.727
same,"Th-T fluorescence, mean of three wells","time-course reading M99, Supplementary Fig. 47 source data",3.7169
same,"Th-T fluorescence, mean of three wells","time-course reading M100, Supplementary Fig. 47 source data",3.715
same,"Th-T fluorescence, mean of three wells","time-course reading M101, Supplementary Fig. 47 source data",3.715
same,"Th-T fluorescence, mean of three wells","time-course reading M102, Supplementary Fig. 47 source data",3.7
same,"Th-T fluorescence, mean of three wells","time-course reading M103, Supplementary Fig. 47 source data",3.686
same,"Th-T fluorescence, mean of three wells","time-course reading M104, Supplementary Fig. 47 source data",3.695
same,"Th-T fluorescence, mean of three wells","time-course reading M105, Supplementary Fig. 47 source data",3.722
same,"Th-T fluorescence, mean of three wells","time-course reading M106, Supplementary Fig. 47 source data",3.704
same,"Th-T fluorescence, mean of three wells","time-course reading M107, Supplementary Fig. 47 source data",3.71
same,"Th-T fluorescence, mean of three wells","time-course reading M108, Supplementary Fig. 47 source data",3.718
same,"Th-T fluorescence, mean of three wells","time-course reading M109, Supplementary Fig. 47 source data",3.713
same,"Th-T fluorescence, mean of three wells","time-course reading M110, Supplementary Fig. 47 source data",3.7
same,"Th-T fluorescence, mean of three wells","time-course reading M111, Supplementary Fig. 47 source data",3.699
same,"Th-T fluorescence, mean of three wells","time-course reading M112, Supplementary Fig. 47 source data",3.698
same,"Th-T fluorescence, mean of three wells","time-course reading M113, Supplementary Fig. 47 source data",3.697
same,"Th-T fluorescence, mean of three wells","time-course reading M114, Supplementary Fig. 47 source data",3.674
same,"Th-T fluorescence, mean of three wells","time-course reading M115, Supplementary Fig. 47 source data",3.682
same,"Th-T fluorescence, mean of three wells","time-course reading M116, Supplementary Fig. 47 source data",3.669
